Experimental findings from a melting point compilation (Tetko et al.; mined from patent text by program, amines drawn as free bases though some values may be those of a salt) are described below.

The compound `CCOC(=O)N1CCCc2nc3ccccc3c(O)c2C1` registered a melting point of 285 °C.

As for `O=C(N[C@H](Cc1ccc(C(F)(F)F)cc1)[C@@H](O)c1cccc2ccccc12)c1ccc2ccccc2c1` (racemic), the melting point was in the range of 251 to 252 °C.

Take `COC(=O)c1ccc(OC2=C3N=C4CCCCC4=C3C(Cc3ccc(OC)cc3)C=C2)o1` (stereo not given): the melting point is 79 to 80 °C. The value for `CCCCCCCOc1ccc(C(=O)CCC(=O)O)cc1` was 104 to 106 °C. The figure for `CCCN1CC(c2ccc(S(C)(=O)=O)cc2)=C(c2ccc(Cl)cc2)C1=O` is 146 to 148 °C. For `CCCCCCN(Cc1ccc(-c2ccccc2-c2nnn[nH]2)cc1)c1ncc(C(=O)O)s1`, the melting point was 113 to 117 °C. The compound `O=C(NS(=O)(=O)NCCc1ccccc1)OCc1ccccc1` returned a melting point of 120 to 121 °C. The value for `CC(=O)N1CCS(=O)c2cccc(Cl)c2C1` (stereo not given) was 119 to 121 °C; that for `Cc1noc(C(C)c2ccc(-c3ccccc3)c(F)c2)n1` (stereo not given) was 55 to 56 °C; that for `CC(C)[C@H](NC(=O)N(C)Cc1ccccn1)C(=O)N[C@@H](Cc1ccccc1)[C@@H](O)[C@@H](O)[C@H](Cc1ccccc1)NC(=O)OC(C)(C)C` was 91 to 93 °C.

For `O=S(=O)(Nc1ncc(Br)nc1OCc1cnccn1)c1cccc(Cl)c1Cl`, the melting point lay within 207 to 209 °C. As for `CCOC(=O)c1cnc(NN)nc1C(F)(F)F`, the melting point is 89 to 90 °C. As to `O=[N+]([O-])c1ccc2c(c1)Sc1cc(OCCF)ccc1N2`, the melting point is 189 to 191 °C. With `COC(=O)NCCOC(=O)C(C)Oc1ccc(OCc2ccccc2)cc1` (stereo not given), the melting point lay in the range of 79 to 81 °C. For the compound `CCC(CC)c1ccc(Cl)c2nc3n(c12)CCCCN3c1ccc(Cl)cc1Cl`, the melting point is 160 to 162 °C. As to `c1ccc(N2CCN(Cc3c[nH]c4ncccc34)CC2)cc1`, the melting point lay within 207 to 209 °C. The value for `S=C=Nc1ccc(Sc2nc3ccccc3s2)cc1` was 84.5 to 86 °C; that for `CCCCCCCCCCCCCCCCOC(=O)C(C)Nc1cccc(O)c1` (stereo not given) was 35 to 40 °C.

In the case of `O=C1C(Br)=CN=CC1Br` (stereo not given), the melting point was 320 °C. The figure for `Nc1ncnc2c1c(-c1ccc(Oc3ccccc3)cc1)cn2C1CC2CC(O)CC2C1` (stereo not given) is 193 to 194 °C; for `CN(C)CCN1CCC(O)(c2ccccc2)C(C(O)c2ccccc2)C1` (stereo not given) it is 157 to 158 °C; for `CCCC(=O)Oc1ccc2[nH]c(=O)c(-c3nnn(Cc4cccc(OCc5ccc6ccccc6n5)c4)n3)cc2c1` it is 200 to 202 °C. The value for `CCOC(=O)C1=Cc2cc(Cl)cc(-c3cccc(OC)c3)c2OC1C(F)(F)F` (stereo not given) was 93.7 to 95.1 °C; that for `COc1ccccc1N(CCN1CCC(C(=O)c2ccc(F)cc2)CC1)C(=O)c1ccc(CO)cc1` was 87 to 91 °C. The value for `Cc1cccc(NC(=O)NCC(=O)N(CC(=O)OCC2CC2)c2ccccc2)c1` was 158 °C; that for `COc1cc2nc(N3CCc4ccc(N)cc4C3)nc(N)c2cc1OC` was 265 to 266 °C. `CCOC(=O)NC1=C(C(=O)OCC)CCC1` registered a melting point of 49 to 51 °C. The figure for `CC(=O)OC12Oc3cc(C(C)C)ccc3C1(OC(C)=O)C(=O)c1c(NS(C)(=O)=O)cccc12` (stereo not given) is 96 to 100 °C; for `CCCCCCCN(Cc1ccc(C(C)(C)C)cc1)C(Nc1ccc(F)cc1F)=C1C(=O)COC1=O` it is 89 to 92 °C; for `O=C(O)c1ccccc1Oc1ccc(Br)cc1NS(=O)(=O)c1cc(C(F)(F)F)cc(C(F)(F)F)c1` it is 158 to 159 °C.

On to `O=C(O)COc1cccc2c1CCC(Cn1cc(C(c3ccccc3)c3ccccc3)ccc1=O)C2` (stereo not given), for which the melting point was in the range of 162 to 163 °C. `COc1cccc(C2=C(CN(C)C)COc3ccccc32)c1` had a melting point of 68 to 71 °C. As to `CSCCCC(=O)NNC(=O)N1Cc2ccccc2Oc2ccc(Cl)cc21`, the melting point lay within 134 to 137 °C.

Compound `CC1=N/C(=C\c2c[nH]c3ncccc23)C(=O)N1` displayed a melting point of 277 to 281 °C. The value for `CC(=NOc1ncc(F)c(N)n1)c1ccccc1` was 163 to 165 °C; that for `CCOC(=O)c1ccc(CCCC2NC(=O)CS2)cc1` (stereo not given) was 99 to 100 °C; that for `Cc1cccc(NC(=O)OC(C)(C)C)c1CNc1cccn2c(C=O)c(C)nc12` was 210 to 212 °C. As to `CCCc1ccc(S(=O)(=O)NN2CCN(C)CC2)cc1`, the melting point lay within 153 to 154 °C. The compound `CCCc1c(O)c(C(C)=O)cc2c(=O)cc(C(=O)OC)n(CC)c12` yielded a melting point of 121 to 123 °C. The value for `NS(=O)(=O)c1cc2c(s1)S(=O)(=O)N(CCO)C(CN1CCOCC1)=C2` was 104 to 108 °C; that for `CCC1(CC(=O)O)OCCc2c1[nH]c1ccccc21` (stereo not given) was 135 to 136 °C; that for `CCCN(CCC)Cc1coc(-c2ncn3c2CN(C)C(=O)c2c(Cl)cccc2-3)n1` was 105 to 107 °C. The figure for `O=C(O)C(CSc1ccccc1)CS(=O)(=O)c1ccc(-c2ccc(Cl)cc2)cc1` (stereo not given) is 158 to 162 °C; for `NOCc1cn(C(c2ccccc2)(c2ccccc2)c2ccccc2)cn1` it is 138 to 139 °C; for `CC(C)c1ccc(N(Cc2cnn(CC(=O)O)c2)C(=O)C2CCCc3c(OCc4ccccc4)cccc32)cc1` (stereo not given) it is 180 to 182 °C. In the case of `CNc1cc(F)ccc1C(=O)OC`, the melting point lay in the range of 39 to 39.5 °C. Take `O=C(COc1ccccc1)NCCc1ccc(S(=O)(=O)NC(=O)c2ccc(C(=O)NCCO)nc2)cc1`: the melting point lay in the range of 155 to 156 °C. The figure for `Cc1c(NC(=O)CC(C)(C)C)c2c(c3c1C(c1ccc(C(C)C)cc1)CO3)CCC2` (stereo not given) is 201 to 202 °C; for `CN1CCN(c2cc3ccccc3c(=O)[nH]2)CC1CO` (stereo not given) it is 173 to 174 °C. The value for `CCCCN(C1CS(=O)(=O)c2cc([N+](=O)[O-])ccc21)S(C)(=O)=O` (stereo not given) was 52 to 55 °C. The figure for `CC=CCn1c(C)c(C)c2cnnc(OCc3ccc(F)cc3F)c21` is 93 to 95 °C; for `COc1ccc(C=CC2=NN(c3ccc([N+](=O)[O-])cc3)C(c3ccc(OC)c(O)c3)C2)cc1O` (stereo not given) it is 215 to 217 °C. On to `COC(=O)c1ccc(Oc2ccc(Oc3ccccc3)cc2)cc1`, for which the melting point was 14 °C.

Regarding `CCS(=O)(=O)NCCCCn1c(=O)c2c(C)nc3cccc1n32`, the melting point was 144 to 145 °C. The figure for `CC(=O)OCCCc1cc(C=C2SCN(C)C2=O)cc(CCCOC(C)=O)c1O` is 112 to 116 °C. With `Fc1cccc(COc2ccc(Nc3ncnc4sc(C#Cc5nccs5)cc34)cc2Cl)c1`, the melting point was determined as 204 °C.

Compound `CC(C)C1=C(Cl)C(=O)c2ccccc2C1=O` showed a melting point of 57 to 59 °C. `CCCCNC(=O)[C@H](C)C[C@H](O)[C@H](CC1CCCCC1)NC(=O)[C@H](Cc1cscn1)NC(=O)[C@@H](CC(=O)N1CCCCC1)Cc1ccc(OC)cc1` yielded a melting point of 120 to 122 °C.

Consider `CCn1cc(C(=O)O)c(=O)c2ccc(N3CCN(C)CC3)cc21`, for which the melting point was 215 °C. Compound `CCOc1c(C(O)CCc2ccn(C)c2)c(OCCN2CCCCC2)c(OC)c2occc12` (stereo not given) gave a melting point of 88 °C.

A word on the melting point: it is the temperature, or range, at which the solid turns liquid.
